For one compound, Cell protein content and Melanin content results are on record in patent publication US20040142007A1, “Cosmetic preparations containing an extract of germinating plants” (priority 2001, published 2004).

This assay relates to B16 melanocytes. The experiment in a line: Inhibition of melanin synthesis in B16 melanocytes. As to conditions: 0.5% w/v; 3 days; control = 100%. The format is cell-based. How it is done:
To carry out the test, melanocytes (B16 cell line) were incubated for 3 days at 37° C./5% CO2 in a standard growth medium for cell cultures containing foetal calf serum (FCS). The growth medium was then replaced by a standard medium with which the substances to be tested were adjusted to different concentrations. After incubation for 3 days, the number of living cells was determined through the cell protein content (Bradford's method) and the content of synthesized melanin—recorded in the cell homogenizate at an optical density of 475 nm. The results are expressed in % against a control of pure cell culture medium.

The compound `OC[C@H]1O[C@@H](Oc2ccc(O)cc2)[C@H](O)[C@@H](O)[C@@H]1O` [Arbutin] yielded a Cell protein content of 81% and a Melanin content of 35%.
